row,SMILES,melting point [°C]
1,"O=C(COc1cccnc1)NCCCCC1CCN(C(c2ccccc2)c2ccccc2)CC1 [compound 84, N-[4-(1-diphenylmethyl-piperidin-4-yl)-butyl]-2-(pyridin-3-yloxy)-acetamide]",103 to 105
2,"O=C(CCc1cccnc1)NCCCCCC1CCN(C(c2ccccc2)c2ccccc2)CC1 [compound 101, N-[5-(1-diphenylmethyl-piperidin-4-yl)-pentyl]-3-(pyridin-3-yl)-propionamide]",112 to 114
3,"O=C(CCc1cccnc1)NCCCCC1CCN(C2c3ccccc3COc3ccccc32)CC1 (centres unmarked) [compound 142, N-{4-[1-(6,11-dihydrodibenzo[b,e]oxepin-11-yl)-piperidin-4-yl]-butyl}-3-(pyridin-3-yl)-propionamide]",110 to 112
4,"CCN(CCCCC1CCN(C(c2ccccc2)c2ccccc2)CC1)C(=O)CCc1cccnc1 [compound 68, N-[4-(1-diphenylmethyl-piperidin-4-yl)-butyl]-N-ethyl-3-(pyridin-3-yl) -propionamide]",72 to 74
5,"O=C(CCc1cccnc1)NCCCCC1CCN(C(=O)c2ccccc2)CC1 [compound 162, N-[4-(1-benzoylpiperidin-4-yl)-butyl]-3-(pyridin-3-yl)-propionamide]",72 to 74
